One data set has as its system A375 human melanoma. In words: A375 human melanoma xenograft tumor growth. The note with it: Fig.3e, 5 Days on, 2 Days off / week x3, individual animals. Format: in vivo, mouse. An excerpt:
PO, oral administration; QD, once daily; BID, twice daily. b–d Tumor growth curves for A2780 ovarian tumor (n = 5) (b), TMD8 large B cell lymphoma (n = 6) (c), and B16F10 melanoma (n = 5) (d) bearing mice treated with the indicated compounds once daily for 11-21 days. e, f Tumor growth curves for A375 melanoma (n = 6) (e), and patient-derived xenograft (PDX) of melanoma (n = 5) (f) bearing mice treated with the indicated compounds once daily (5 days on, 2 days off) for 21 days. For d–f, NHWD-870 used is NHWD-870-HCl synthesized using Suzuki coupling route. Data are presented as mean ± SEM in (a, b, d, f) and mean + SEM in (c, e). p values were calculated using two-tailed, unpaired t tests. *p < 0.05; **p < 0.01; ***p < 0.001. Source data are provided as a Source Data file.
4–6 weeks old female BALB/c nude mice were used for most experiments, with the exception of 6–8 weeks old female C57BL/6 mice were used for B16F10 experiments, and 6–8 weeks old male BALB/c nude mice and SD rats were used for pharmacokinetic experiments. All animals were purchased from Shanghai SIPPR-Bk Lab Animal Co., Ltd. All animals were housed under a regimen of 12 h light/12 h dark cycles and specific pathogen-free conditions. 5×10^6 NCI-H526, ES-2, MDA-MB231, A2780, A375, B16F10, and TMD-8 cells (0.1 ml) were injected subcutaneously into female nude mice. The melanoma patient-derived xenograft model was derived from a human melanoma sample (BRAF, NARS and NF1 wild type, and p53 mutant) removed from a patient in Xiangya Hospital. Surgically removed tumor fragments were implanted subcutaneously into female NSG mice. When the tumors grew to ~1000 mm^3, they were harvested and cryopreserved or immediately re-implanted for expansion or experiments. Mouse body weight and tumor sizes were measured every 3 days. Once the tumors grew to 150–200 mm^3, mice were treated with the compounds as described in the Figures. 1 × 10^6 A2780 cells (1 ml) were injected into the abdominal cavity of nude mice. Ascitic volume and tumor weight were measured by an electronic balance. All the procedures were evaluated and approved by the Institutional Animal Care and Use Committee of Central South University and Yale University. […]
We apologize for not clearly labeling the experiments using compounds synthesized using Suzuki coupling method. In the revised manuscript, we modified the text to clearly mark the animal models in Fig 3d-f were tested using NHWD-870 synthesized using Suzuki […]
compared the activity of NHWD-870 synthesized using Stille coupling route with the NHWD-870 synthesized from Suzuki coupling route (Reviewer Figure 1). […]
activity and possible toxicity were identical.
Reviewer Figure 1 NHWD-870 synthesized through Stille or Suzuki route has similar properties in vivo. Tumor bearing mice were treated with 2mg/kg of the indicated compounds, orally administrated once daily for 21 days. Shown are tumor growth curves (a) and body weight change (b) for A375 melanoma bearing mice. […]
986158 in terms of potency, but apart from with the A375 melanocyte cell line, the advance seems relatively moderate. With such similar compounds, the pharmacokinetic properties and ability to accumulate at the desired site is often more important. Figure S6d (prev. Fig. 3d) in the previous
In general terms: In xenograft studies the graft and the host belong to different species.

Data set [1] is described as follows: Metabolic stability assay, rat liver microsomes. The note with it: in % (unit assumed). As for the experimental part: (§1) 7. Metabolic stability assay. The metabolic profile of NHWD-870 was determined using mouse, rat, dog, monkey, and human liver microsomes using the protocols […]
(§2) No. Compound ID Exat Mass Stock Conc.
(§3) 1) 100 mM potassium phosphate buffer, PH7.4; 2) 10mM MgCI2
(§4) 1) Intermediate solution: Dilute 5 μL of compound or control from stock solution (10 mM) with 45 uL DMSO,then mixed with 450 μL 1:1 Methanol/Water (Conc.: 10 0 […]
(§5) 2) Working solution: Dilute 50 μL from intermediate solution with 450 μL 100 mM potassium phosphate buffer (Conc.: 10 μM, 4.5%MeOH)
(§6) (3) NADPH regenerating system (final Isocitric dehydrogenase conc.= 1 unit/mL at […]
(§7) 1) β-Nicotinamide adenine dinucleotide phosphate, Vendor: sigma Cat. No. N0505
(§8) 2) Isocitric acid, Vendor: Sigma Cat. No. I1252
(§9) 3) Isocitric dehydrogenase, Vendor: sigma Cat. No. I2002
(§10) (4) Liver microsome solution preparation (final concentration o f 0.5 mg protein/mL) […]
(§11) Cold ACN including 100 ng/mL Tolbutamide and 100 ng/mL Labetalol as internal […]
(§12) 1) Add 10 μL compound or control working solution/well to all plates (T0, T5, T10, T20, T30, T60, NCF60) except matrix blank.
(§13) 2) Dispense 680 μL/well microsome solution to 96-well plate as reserv oir according to […]
(§14) plate map. Then add 80 μL/well to every plate by Apricot, incubate the mixture of microsome solution and compound at 37℃ for about 10 min.
(§15) 3) Add 10 μL 100 mM potassium phosphate buffer/well to NCF60, incubate at 37℃, […]
(§16) 4) After pre-warming, dispense 90 μL/well NADPH regenerating system to 96-well plate as reservoir according to the plate map. Then add 10 μL/well to every plate by Apricot to start reaction.
(§17) 5) Incubate at 37℃, start timer 2.
(§18) 6) Add 300 (μL/well) stop solution (cold in 4℃, including 100 ng/mL Tolbutamide and 100 ng/mL Labetalol) to terminate the reaction.
(§19) 7) The sampling plates are shaked for approx 10 min.
(§20) 8) Samples are centrifuged at 4000 rpm for 20 min under 4℃.
(§21) 9) While centrifuging, load 8×new 96-well plate with 300 μL HPLC water, then transfer 100 μL supernatant, mixed for LC/MS/MS.
(§22) Use equation of first order kinetics to calculate t1/2 and Clin t(mic): […]
(§23) Equation of first order kinetics: […]
A general note: Microsomes from liver hold many membrane-bound enzymes, among them those of drug oxidation.

Data set [2] in a line: Metabolic stability assay, dog liver microsomes. Conditions: in % (unit assumed). As for the experimental part:
as §1, §2, §3, §4, §5, §6, §7, §8, §9, §10, §11, §12, §13, §14, §15, §16, §17, §18, §19, §20, §21, §22, §23

A short description of data set [3]: Metabolic stability assay, human liver microsomes. The note with it: in % (unit assumed). The protocol: as §1, §2, §3, §4, §5, §6, §7, §8, §9, §10, §11, §12, §13, §14, §15, §16, §17, §18, §19, §20, §21, §22, §23
Data set [4] is described as follows: Metabolic stability assay, monkey liver microsomes. The note with it: in % (unit assumed). As for the experimental part: as §1, §2, §3, §4, §5, §6, §7, §8, §9, §10, §11, §12, §13, §14, §15, §16, §17, §18, §19, §20, §21, §22, §23

Structures are written as SMILES. Where “and” joins values, the source holds several entries; their conditions need not be identical. Identical values can stand only once.

For the compound `Cc1nnn(C)c1-c1cnc2c3c4cnn(C)c4ccc3n([C@H](c3ccccc3)C3CCOCC3)c2c1.Cl` [NHWD-870-HCl], the “Tumor volume” value in the data set with A375 human melanoma (2 mg/kg PO QD, day 0) is 124.032 mm3 and 120.497 mm3 and 183.857 mm3 and 155.659 mm3 and 140.462 mm3 and 187.897 mm3; in the data set with A375 human melanoma (2 mg/kg PO QD, day 4), 125.079 mm3 and 148.629 mm3 and 180.193 mm3 and 187.061 mm3 and 149.381 mm3 and 207.594 mm3; with A375 human melanoma (2 mg/kg PO QD, day 7), 119.983 mm3 and 238.282 mm3 and 335.392 mm3 and 359 mm3 and 146.599 mm3 and 237.29 mm3; in the data set on A375 human melanoma (2 mg/kg PO QD, day 11), 204.214 mm3 and 361.187 mm3 and 438.176 mm3 and 511.029 mm3 and 273.013 mm3 and 310.165 mm3; with A375 human melanoma (2 mg/kg PO QD, day 14), 396.493 mm3 and 659.962 mm3 and 783.286 mm3 and 668.171 mm3 and 489.424 mm3 and 499.77 mm3; with A375 human melanoma (2 mg/kg PO QD, day 18), 580.818 mm3 and 828.001 mm3 and 941.933 mm3 and 817.427 mm3 and 615.591 mm3 and 523.033 mm3. The “Tumor volume” value in the data set on A375 human melanoma (2 mg/kg PO QD, day 21) is 932.477 mm3 and 934.695 mm3 and 1116.85 mm3 and 993.943 mm3 and 830.361 mm3 and 759.477 mm3; in the data set on A375 human melanoma (3 mg/kg PO QD, day 0) it was 187.407 mm3 and 129.823 mm3 and 123.552 mm3 and 162.978 mm3 and 197.865 mm3 and 111.638 mm3; in the data set with A375 human melanoma (3 mg/kg PO QD, day 4), 180.115 mm3 and 100.661 mm3 and 101.808 mm3 and 169.071 mm3 and 201.772 mm3 and 81.9823 mm3; in the data set with A375 human melanoma (3 mg/kg PO QD, day 7), 354.946 mm3 and 108.136 mm3 and 132.2 mm3 and 290.979 mm3 and 435.513 mm3 and 83.7227 mm3; in the data set on A375 human melanoma (3 mg/kg PO QD, day 11), 333.816 mm3 and 123.623 mm3 and 211.51 mm3 and 368.326 mm3 and 511.795 mm3 and 108.132 mm3; in the data set with A375 human melanoma (3 mg/kg PO QD, day 14), 869.938 mm3 and 282.077 mm3 and 467.223 mm3 and 627.735 mm3 and 985.207 mm3 and 153.932 mm3. The “Tumor volume” value with A375 human melanoma (3 mg/kg PO QD, day 18) is 947.479 mm3 and 354.935 mm3 and 602.443 mm3 and 703.598 mm3 and 1037.76 mm3 and 172.297 mm3; in the data set with A375 human melanoma (3 mg/kg PO QD, day 21), 1152.24 mm3 and 633.313 mm3 and 890.897 mm3 and 1097.51 mm3 and 1306.53 mm3 and 328.738 mm3; in the data set on A375 human melanoma (Group 4, 1 mg/kg PO QD, day 0) it was 129.244 mm3 and 160.038 mm3 and 169.001 mm3; in the data set with A375 human melanoma (Group 4, 1 mg/kg PO QD, day 4), 194.913 mm3 and 185.189 mm3; with A375 human melanoma (Group 4, 1 mg/kg PO QD, day 7), 287.4 mm3 and 179.028 mm3; with A375 human melanoma (Group 4, 1 mg/kg PO QD, day 11) it was 471.867 mm3 and 223.232 mm3. The “Tumor volume” value in the data set on A375 human melanoma (Group 4, 1 mg/kg PO QD, day 14) was 761.481 mm3 and 416.901 mm3; with A375 human melanoma (Group 4, 1 mg/kg PO QD, day 18), 1193.81 mm3 and 502.306 mm3; in the data set with A375 human melanoma (Group 4, 1 mg/kg PO QD, day 21), 1260.17 mm3 and 803.56 mm3 and 2033.79 mm3.

With `C[C@]12CC[C@H]3[C@@H](CCC4=CC(=O)CC[C@@]43C)[C@@H]1CC[C@@H]2O` [Testosterone], the “Remaining in rat liver microsomes (Sup Fig.6b)” value in data set [1] (time 0) came out at 100; in data set [1] (time 5), 0.549; in data set [1] (time 10), 0; in data set [1] (time 20), 0; in data set [1] (time 30), 0; in data set [1] (time 60), 0. Besides, the “Remaining in Dog liver microsomes (Sup Fig.6c)” value in data set [2] (time 0) is listed as 100; in data set [2] (time 5), 51.913; in data set [2] (time 10) it was 27.194; in data set [2] (time 20), 14.015; in data set [2] (time 30) it was 6.615; in data set [2] (time 60), 0. Moreover, the “Remaining in Human liver microsomes (Sup Fig.6e)” value is 100 in data set [3] (time 0); 82.349 in data set [3] (time 5); 75.006 in data set [3] (time 10); 64.528 in data set [3] (time 20); 50.522 in data set [3] (time 30); 21.403 in data set [3] (time 60). In addition, the “Remaining in Monkey liver microsomes (Sup Fig.6d)” value in data set [4] (time 0) was 100; in data set [4] (time 5), 72.293; in data set [4] (time 10), 57.852; in data set [4] (time 20), 51.22; in data set [4] (time 30), 37.184; in data set [4] (time 60), 14.336.

The values above are taken from publication PMC7156724, “Potent BRD4 inhibitor suppresses cancer cell-macrophage interaction” (Nature Communications, 2020).
